Experimental data: ChEMBL document CHEMBL3045135, “Synthesis, characterization and pharmacological evaluation of (E)-N-(substituted-benzylidene)isonicotinohydrazide derivatives as potent anticonvulsant agents” (Med Chem Res, 2012)
Active and inactive are the calls of the source. The calls are words filed in the database; no cut-off is given here.

Assays:
Mus musculus [1] = test: Neurotoxicity in Mus musculus C57B/6 (mouse) assessed as minimal motor impairment at 300 mg/kg, ip after 0.5 hr; format: toxicity, organism-based; set-up: dose 300 mg/kg, route intraperitoneal; settings: in vivo
Mus musculus [2] = test: Anticonvulsant activity in Mus musculus C57B/6 (mouse) assessed as protection against maximal electroshock-induced seizure at 300 mg/kg, ip after 4 hr; format: functional, organism-based; set-up: dose 300 mg/kg
Mus musculus [3] = test: Neurotoxicity in Mus musculus C57B/6 (mouse) assessed as minimal motor impairment at 300 mg/kg, ip after 4 hr; format: toxicity, organism-based; set-up: dose 300 mg/kg, route intraperitoneal; settings: in vivo
Mus musculus [4] = test: Anticonvulsant activity in Mus musculus C57B/6 (mouse) assessed as protection against subcutaneous pentylene tetrazole-induced seizure at 300 mg/kg, ip after 0.5 hr; format: functional, organism-based; set-up: dose 300 mg/kg
Mus musculus [5] = test: Anticonvulsant activity in Mus musculus C57B/6 (mouse) assessed as protection against subcutaneous pentylene tetrazole-induced seizure at 300 mg/kg, ip after 4 hr; format: functional, organism-based; set-up: dose 300 mg/kg
Mus musculus [6] = test: Anticonvulsant activity in ip dosed Mus musculus C57B/6 (mouse) assessed as protection against maximal electroshock-induced seizure after 0.5 hr; format: functional; settings: C57B/6, ip, read-out: MED
Mus musculus [7] = test: Anticonvulsant activity in Mus musculus C57B/6 (mouse) assessed as protection against 6 Hz psychomotor seizure at 100 mg/kg, ip after 0.25 to 4 hr by minimal clonic seizure test; format: functional, organism-based; set-up: dose 100 mg/kg
[8] = Neurotoxicity in ip dosed Mus musculus C57B/6 (mouse) assessed as minimal motor impairment after 4 hr; format: toxicity, organism-based; settings: in vivo
Mus musculus [9] = test: Anticonvulsant activity in Mus musculus C57B/6 (mouse) assessed as protection against maximal electroshock-induced seizure at 300 mg/kg, ip after 0.5 hr; format: functional, organism-based; set-up: dose 300 mg/kg
Mus musculus [10] = test: Anticonvulsant activity in ip dosed Mus musculus C57B/6 (mouse) assessed as protection against subcutaneous pentylene tetrazole-induced seizure after 0.5 hr; format: functional; settings: C57B/6, 0.5 h, read-out: MED
Mus musculus [11] = test: Anticonvulsant activity in ip dosed Mus musculus C57B/6 (mouse) assessed as protection against maximal electroshock-induced seizure after 4 hr; format: functional; settings: C57B/6, ip, read-out: MED

Compound	Activity (Mus musculus [1])	Activity (Mus musculus [2])	Activity (Mus musculus [3])	Activity (Mus musculus [4])	Activity (Mus musculus [5])	minimal effective dose (Mus musculus [6]) [mg/kg]	Activity (Mus musculus [7])	MTD at 4 h [8] [mg/kg]	Activity (Mus musculus [9])	minimal effective dose (Mus musculus [10]) [mg/kg]	minimal effective dose (Mus musculus [11]) [mg/kg]
O=C(N/N=C/c1ccccc1)c1ccncc1 [N'-BENZYLIDENE ISONICOTINOHYDRAZIDE]	Non-toxic	inactive	Non-toxic	inactive	inactive	300	Active	–	–	–	–
O=C(N/N=C(\c1ccccc1)c1ccc(Br)cc1)c1ccncc1	Non-toxic	inactive	–	inactive	inactive	–	–	100	inactive	–	–
O=C(N/N=C/c1cccc(F)c1)c1ccncc1	Non-toxic	inactive	Non-toxic	inactive	inactive	300	Active	–	–	–	–
O=C(NN=C(c1ccccc1)c1ccccc1)c1ccncc1	Non-toxic	inactive	Non-toxic	–	inactive	300	Active	–	–	300	–
CCOc1ccccc1/C=N/NC(=O)c1ccncc1	Non-toxic	inactive	Non-toxic	inactive	inactive	300	Active	–	–	–	–
C/C(=N\NC(=O)c1ccncc1)c1ccccc1 [ISONICOTINOYLHYDRAZONE OF ACETOPHENONE]	–	inactive	–	inactive	inactive	–	–	300	inactive	–	–
O=C1NC(=O)C(c2ccccc2)(c2ccccc2)N1 [PHENYTOIN]	–	–	–	inactive	inactive	30	–	–	–	–	30
CN(C)c1ccc(/C=N/NC(=O)c2ccncc2)cc1 [N'-(4-DIMETHYLAMINOBENZYLIDENE)ISONICOTINOHYDRAZIDE]	Non-toxic	inactive	–	inactive	inactive	–	–	300	inactive	–	–
